Test results as given in patent US20090221697A1, “MACROLIDE CONJUGATES OF PYRROLIZINE AND INDOLIZINE COMPOUNDS AS INHIBITORS OF 5-LIPOOXYGENASE AND CYCLOOXYGENASE” (MERCKLE GMBH, priority 2005, published 2009).

Assays:
[1] = test system: collagen-induced arthritis in DBA J1 mice; test: Collagen-induced arthritis, arthritic score (Table 2); format: in vivo; set-up: key: −: healthy paw; +: one joint inflamed; ++: two types of joint inflamed (e.g. tarsal and digit); +++: inflammation of three joints in two separate parts of the paw; ++++: inflammation of whole paw; details: treated for 10 days after arthritis developed
Description: (§1) Efficacy of drugs in suppressing arthritis may be determined using animal models. The collagen-induced arthritis in rodents is a well established experimental model of rheumatoid arthritis and considered appropriate to test the efficacy of anti-inflammatory drugs. The model is performed by immunising animals with exogenous collagen (e.g. bovine or chick) and administering substances following the appearance of disease. Disease may be boosted to increase response. The data reported herein were generated using the murine model in DBA J1 mice. At day zero a collagen suspension in complete Freund's adjuvant was injected s.c. at the tail base. At day 20, collagen in incomplete Freund's adjuvant was injected at a nearby position on the tail base. When arthritis developed, animals were randomly assigned to treatment groups. Signs monitored included weight, paw score, paw thickness and overall condition. Animals were observed and treated for 10 days. Macrolide conjugates were formulated as solutions in 1.5% citrate, 6% fructose in water.

blood cells = test: Uptake of conjugates into blood cells (buffy coat preparations), LC/MS; format: in vitro ADME; set-up: key: −: excluded from blood cells; +: equal or similar; ++: >5-fold enhancement in blood cells; +++: >10-fold enhancement in blood cells; details: substrates 1 to 10 μM, 37° C., 5% CO2, screening samples at 0 and 120 minutes
Description: Freshly drawn heparinised blood or buffy coat preparations are used for the determination of conjugate uptake. Buffy coat preparations are preferred. They may be obtained from donor blood by simple centrifugation of whole blood (4795 g for 10 minutes). Following centrifugation, plasma is collected from the surface, after which immune cells are expressed from the donor bags along with the erythrocytes lying immediately below the leukocyte layer. This ensures high yields and a sufficient population of erythrocytes for partition. 5 ml of the resulting cell suspension are dispensed into T25 culture flasks. Substrates are added to a final concentration between 1 and 10 μM and the suspensions incubated at 37° C., in a 5% CO2 atmosphere. For analysis of uptake kinetics, samples are drawn at 0, 2, 5, 10, 30, 60, 90, 180, or 240 min after substrate addition. For screening purposes, samples are taken at 0 and 120 minutes.
Cell fractions were prepared using density gradient centrifugation. Mononuclear cells and polymorphonuclear cells are separated from erythrocytes essentially by layering the cell suspension on a viscous medium typically composed of a solution containing Ficoll or similar (commercial suppliers include: Lymphoprep, Axis Shield, 1031966; Lymphoflot HLA, 824010; or PMN Separation Medium Robbins Scientific 1068-00-0). The layered suspension is then centrifuged at 600 g, 20 min, after which the cell fractions and the plasma (incubation medium) fraction are removed by gentle aspiration, washed twice in PBS buffer, followed by estimation of the cell number and pellet volume.
Uptake of compounds is monitored using chromatographic analysis (LC/MS) with mass selective detection. Uptake is also normalized to the amount of cells based on both estimated volume and total protein. […] The supernatant is recovered and sub-sampled for protein and DNA content. Protein in the supernatant is precipitated by bringing the solution to 100% v/v ethanol and centrifuging again at 16100 g, 10 min. Compound uptake is normalized according to cytoplasmic volume of cells in order to obtain the average concentration in the cells. Cell volume is estimated by correlation of DNA, protein or haem content of lysed cell aliquots to cell number and packed volume prior to lysis.

[2] = test system: collagen-induced arthritis in DBA J1 mice; test: Collagen-induced arthritis (bovine collagen), further experiment, p.o. once daily (Table 3); format: in vivo; details: vehicle = 100%
Description: as §1
In a further experiment Arthritis was induced using bovine collagen as described above. Animals were treated with compounds p.o. once daily following positive development of disease. Comparison with control animals (untreated) was made at 9 days after treatment.

[3] = dose 132 μmol/kg p.o. once daily
[4] = dose 66 μmol/kg p.o. once daily

| Ratio internal over external concentration (blood cells) | SMILES | arthitic score [1] | relative score at day 9 after onset of arthritis [2, 3] | relative score at day 9 after onset of arthritis [2, 4] |
| --- | --- | --- | --- | --- |
| ++ (>5-fold enhancement in blood cells) | CC[C@H]1OC(=O)[C@H](C)C(=O)[C@H](C)[C@@H](O[C@@H]2O[C@H](C)C[C@H](N(C)C)[C@H]2OC(=O)Cc2c(-c3ccc(Cl)s3)c(-c3ccccc3)c3n2CC(C)(C)C3)[C@](C)(O)C[C@@H](C)CN(C)[C@H](C)[C@@H](O)[C@]1(C)O [Compound 8] | + |  |  |
| + | CC1(C)Cc2c(-c3ccccc3)c(-c3cc4ccccc4o3)c(CC(=O)O)n2C1 [Drug component of 5 (without macrolide), (2-benzofuran-2-yl-6,6-dimethyl-1-phenyl-6,7-dihydro-5H-pyrrolizin-3-yl)-acetic acid, reference compound] | ++++ |  |  |
|  | CC1(C)Cc2c(-c3ccccc3)c(-c3ccc(Cl)cc3)c(CC(=O)O)n2C1 [Active moiety alone, licofelone, reference compound] |  | 90% |  |
| + | CC1(C)Cc2c(-c3ccccc3)c(-c3ccc(Cl)s3)c(CC(=O)O)n2C1 [Drug component of 8 (without macrolide), [2-(5-chloro-thiophen-2-yl)-6,6-dimethyl-1-phenyl-6,7-dihydro-5H-pyrrolizin-3-yl]-acetic acid, reference compound] | ++ |  |  |
|  | CC[C@H]1OC(=O)[C@H](C)C(=O)[C@H](C)[C@@H](O[C@@H]2O[C@H](C)C[C@H](N(C)C)[C@H]2OC(=O)Cc2c(-c3ccc(Cl)cc3)c(-c3ccccc3)c3n2CC(C)(C)C3)[C@](C)(O)C[C@@H](C)CN(C)[C@H](C)[C@@H](O)[C@]1(C)O [Compound 4] |  | 33% | 76% |
|  | CC[C@H]1OC(=O)[C@H](C)[C@@H](O)[C@H](C)[C@@H](O[C@@H]2O[C@H](C)C[C@H](N(C)C)[C@H]2OC(=O)Cc2c(-c3ccc(Cl)cc3)c(-c3ccccc3)c3n2CC(C)(C)C3)[C@](C)(O)C[C@@H](C)CN(C)[C@H](C)[C@@H](O)[C@]1(C)O [Compound 2] |  |  | 44% |
|  | CC[C@H]1OC(=O)[C@H](C)C2O[C@](C)(C[C@@H](C)CN(C)[C@H](C)[C@@H](O)[C@]1(C)O)[C@H](O[C@@H]1O[C@H](C)C[C@H](N(C)C)[C@H]1OC(=O)Cc1c(-c3ccc(Cl)cc3)c(-c3ccccc3)c3n1CC(C)(C)C3)[C@H]2C [Compound 9] |  | 14% | 67% |

| SMILES | Ratio internal over external concentration (blood cells) | arthitic score [1] | relative score at day 9 after onset of arthritis [2, 3] | relative score at day 9 after onset of arthritis [2, 4] |
| --- | --- | --- | --- | --- |
| CC[C@H]1OC(=O)[C@H](C)C(=O)[C@H](C)[C@@H](O[C@@H]2O[C@H](C)C[C@H](N(C)C)[C@H]2OC(=O)Cc2c(-c3cc4ccccc4o3)c(-c3ccccc3)c3n2CC(C)(C)C3)[C@](C)(O)C[C@@H](C)CN(C)[C@H](C)[C@@H](O)[C@]1(C)O [Compound 5] | +++ (>10-fold enhancement in blood cells) | − |  |  |
